Experimental data published in the supplement of paper PMC7840683.
± gives the standard deviation of the averaged measurements.

Tested on: HepaRG
Assay: LDH release cytotoxicity, % of total lysis control; higher = more cytotoxic
Conditions: 48 h
Method in brief: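 Eight-point half-log series of test chemicals, the highest at 100 µM, were given in duplicate for 48 h to single-lot HepaRG cells on collagen I-coated 96-well plates in serum-free induction medium with 0.5% DMSO. A Tecan Safire read resorufin fluorescence from CytoTox-ONE as a measure of LDH in 50 µL spent medium, with 0.1% Triton X in total lysis wells. Percent cytotoxicity was normalized to on-plate vehicle and total lysis controls and averaged over the duplicates.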

SMILES | LDH release cytotoxicity (0.03162 µM) [%] | LDH release cytotoxicity (0.1 µM) [%] | LDH release cytotoxicity (0.3162278 µM) [%] | LDH release cytotoxicity (1 µM) [%] | LDH release cytotoxicity (3.16228 µM) [%] | LDH release cytotoxicity (10 µM) [%] | LDH release cytotoxicity (31.6228 µM) [%] | LDH release cytotoxicity (100 µM) [%] | further results
CC(C)(O)c1ccc(CNC(=O)c2cccnc2Oc2ccc(F)cc2)cc1 | -1.22 ± 0.93 | -1.42 ± 0.31 | -0.81 ± 0.042 | -1.975 ± 0.0046 | -0.936 ± 0.39 | -0.88 ± 0.74 | -1.34 ± 0.14 | -1.94 ± 0.87 | 
O=C(OCCOCCOC(=O)c1ccccc1)c1ccccc1 [Diethylene glycol dibenzoate] | -0.909 ± 1 | -1.337 ± 0.0031 | -0.774 ± 0.13 | -1.03 ± 1.1 | -1.1 ± 0.042 | -0.826 ± 0.27 | -1.09 ± 0.2 | 0.38 ± 0.34 | 
NNC(=O)c1ccncc1 [Isoniazid] |  |  |  |  |  |  |  |  | LDH release cytotoxicity (0.013914 µM): -1.4 ± 0.98%; LDH release cytotoxicity (0.044 µM): -0.0891 ± 1.3%; LDH release cytotoxicity (0.13914 µM): -1.34 ± 0.49%; LDH release cytotoxicity (0.44 µM): -1.05 ± 1.1%; LDH release cytotoxicity (1.3914 µM): -1.62 ± 0.34%; LDH release cytotoxicity (4.4 µM): -0.682 ± 2%; LDH release cytotoxicity (13.914 µM): -0.843 ± 0.11%; LDH release cytotoxicity (44 µM): -0.0914 ± 0.33%
OCCNCCO [Diethanolamine] |  | -1.45 ± 1.3 |  | -2.4 ± 0.18 | -2.41 ± 0.4 | -1.71 ± 0.48 | -0.726 ± 0.53 | 0.309 ± 0.55 | LDH release cytotoxicity (0.031623 µM): -1.15 ± 0.87%; LDH release cytotoxicity (0.316228 µM): -1.83 ± 0.56%
CC(C)(c1ccc(O)cc1)c1ccc(O)cc1 [Bisphenol A] | -1.32 ± 0.3 | -0.356 ± 1.2 | -1.1 ± 0.41 | -1.37 ± 0.015 | -0.158 ± 0.45 | 0.439 ± 0.41 | 0.463 ± 0.27 | 1.47 ± 1.2 | 
Cn1cnc2c1c(=O)[nH]c(=O)n2C [Theobromine] |  |  |  |  |  |  |  |  | LDH release cytotoxicity (0.0132816 µM): 0.266 ± 2.6%; LDH release cytotoxicity (0.042 µM): 0.527 ± 1.8%; LDH release cytotoxicity (0.132816 µM): 0.244 ± 1.1%; LDH release cytotoxicity (0.42 µM): -0.545 ± 0.65%; LDH release cytotoxicity (1.3281566 µM): 0.0875 ± 0.46%; LDH release cytotoxicity (4.2 µM): -0.226 ± 0.1%; LDH release cytotoxicity (13.281566 µM): -0.215 ± 0.61%; LDH release cytotoxicity (42 µM): 0.896 ± 0.38%
CC(O)CO (configuration not stated) [1,2-Propylene glycol] | -1.3 ± 0.42 | -0.939 ± 1.1 | -1.49 ± 0.33 | -1.94 ± 0.42 | -1.55 ± 0.095 | -1.06 ± 0.055 | -1.08 ± 0.23 | 0.548 ± 0.21 | 
CC1(C)C(=O)N(Cl)C(=O)N1Cl [1,3-Dichloro-5,5-dimethylhydantoin] | 0.112 ± 0.0031 | -1.567 ± 0.014 | -0.979 ± 0.12 | -0.604 ± 0.23 | -0.443 ± 0.098 | -0.243 ± 0.15 | 1.54 ± 2 | 0.626 ± 0.89 | 
CC1=CC(=O)CC(C)(C)C1 [Isophorone] | -0.205 ± 0.22 | 0.529 ± 2.1 | -0.132 ± 0.62 | -0.235 ± 0.13 | 0.145 ± 0.46 | 1.04 ± 0.22 | 0.514 ± 0.36 | 1.74 | 
CCN(Cc1cccnc1)C(=O)c1cccc(Cl)c1C1(C)C(=O)N(Cc2ccc(OC)cc2OC)c2ccc(Cl)cc21 (configuration not stated) |  |  |  |  |  |  |  |  | LDH release cytotoxicity (0.02988 µM): -0.884 ± 0.23%; LDH release cytotoxicity (0.0945 µM): -1.62 ± 0.57%; LDH release cytotoxicity (0.298835 µM): -1.35 ± 0.017%; LDH release cytotoxicity (0.945 µM): -1.68 ± 0.046%; LDH release cytotoxicity (2.98835 µM): -2.31 ± 0.18%; LDH release cytotoxicity (9.45 µM): 1.33 ± 0.092%; LDH release cytotoxicity (29.8835 µM): 7.13 ± 1.4%; LDH release cytotoxicity (94.5 µM): 11.6 ± 0.98%
Cc1ccc(C(C)C)cc1 [p-Cymene] |  |  |  |  |  |  |  |  | LDH release cytotoxicity (0.01581 µM): -0.487 ± 2.9%; LDH release cytotoxicity (0.05 µM): -1.9 ± 1.2%; LDH release cytotoxicity (0.1581139 µM): -3.02 ± 0.62%; LDH release cytotoxicity (0.5 µM): -2.63 ± 0.3%; LDH release cytotoxicity (1.5811388 µM): -1.96 ± 0.66%; LDH release cytotoxicity (5 µM): -2.1 ± 0.077%; LDH release cytotoxicity (15.8114 µM): -1.51 ± 0.39%; LDH release cytotoxicity (50 µM): 0.041 ± 0.062%
Clc1ccc(C(c2ccccc2Cl)C(Cl)(Cl)Cl)cc1 (configuration not stated) [o,p'-DDT] | 0.598 ± 0.81 | -1.38 ± 0.27 | -0.542 ± 0.35 | -0.286 ± 0.43 | 2.06 ± 0.81 | 10.3 ± 2.1 | 12.9 ± 0.91 | 8.46 ± 0.97 | 
Cc1cc(NC(=O)C(=O)O)cc(C)c1Oc1ccc(O)c2c1CCC2 | 0.0573 ± 0.64 | -0.831 ± 0.11 | -0.658 ± 0.17 | -1.32 ± 0.24 | -1.06 ± 0.025 | -0.633 ± 0.77 | 1.17 ± 2.3 | 0.214 ± 0.025 | 
Cn1c(=O)cc(Oc2ccc(F)cc2F)c2cnc(NCC(C)(C)O)nc21 | -1.61 ± 0.48 | -1.64 ± 0.72 | -0.855 ± 0.66 | -0.86 ± 0.062 | -1.12 ± 0.3 | -1.19 ± 0.22 | -0.929 ± 0.018 | -1.1 ± 0.89 | 
CCOP(=S)(OCC)Oc1cc(C)nc(C(C)C)n1 [Diazinon] | -0.351 ± 0.5 | -0.469 ± 0.17 | -1.1 ± 0.52 | -1.24 ± 0.3 | 0.347 ± 0.03 | -0.4 ± 0.31 | -0.512 ± 0.59 | 0.528 ± 0.71 | 
NCCO [Ethanolamine] | -2.14 ± 1.3 | -2 ± 1.6 | -1.29 ± 0.49 | -1.55 ± 0.046 | -0.642 ± 0.088 | -0.777 ± 0.073 | -0.101 ± 0.76 | 0.0783 ± 0.76 | 
Cc1cc(CCN2CCN(c3nsc4ccccc34)CC2)cc2c1NC(=O)CC2(C)C | -0.898 ± 0.3 | -1.13 ± 1.4 | -0.946 ± 0.34 | -0.828 ± 0.57 | -0.925 ± 0.38 | -1.14 ± 0.57 | -0.566 ± 0.6 | -0.469 ± 0.49 | 
[O-][Cl+]O [Sodium chlorite] | 0.165 ± 0.73 | 0.219 ± 1.2 | -0.973 ± 0.84 | -1.49 ± 0.98 | -1.49 ± 0.44 | 0.0935 ± 0.52 | -0.775 ± 0.093 | 1.68 ± 0.64 | 
CON=C(C(=O)OC)c1ccccc1CON=C(C)c1cccc(C(F)(F)F)c1 [Trifloxystrobin] | -0.083 ± 0.59 | -0.478 ± 0.33 | -0.545 ± 0.8 | 0.0357 ± 0.72 | -0.301 ± 0.36 | 0.277 ± 0.53 | 0.163 ± 1.6 | 1.57 ± 1.4 | 
